Measurements as given in BigSolDB 2.1.

Cc1c(Br)cccc1C(=O)O
solubility (mole fraction)
Details | in DMF | in THF | in acetonitrile | in cyclohexane | in ethanol | in ethyl acetate | in methanol
278.15 K | 0.104 | 0.169 | 0.00326 | – | 0.0358 | 0.027 | 0.0205
283.15 K | 0.126 | 0.183 | 0.00387 | 0.00076 | 0.0398 | 0.031 | 0.0261
288.15 K | 0.152 | 0.196 | 0.00473 | 0.00092 | 0.0449 | 0.0359 | 0.0301
293.15 K | 0.181 | 0.209 | 0.006 | 0.00113 | 0.0513 | 0.0413 | 0.0355
298.15 K | 0.216 | 0.222 | 0.00665 | 0.00135 | 0.0563 | 0.0464 | 0.041
303.15 K | 0.258 | 0.236 | 0.00779 | 0.00162 | 0.0631 | 0.0524 | 0.0479
308.15 K | 0.305 | 0.248 | 0.00955 | 0.00197 | 0.0703 | 0.0601 | 0.0559
313.15 K | 0.361 | 0.26 | 0.0113 | 0.00249 | 0.0831 | 0.0677 | 0.0641
318.15 K | 0.424 | 0.271 | 0.0138 | 0.00312 | 0.0936 | 0.0775 | 0.0724
323.15 K | 0.5 | 0.282 | 0.0164 | 0.00422 | 0.104 | 0.0879 | 0.0815
328.15 K | 0.584 | 0.293 | 0.0194 | 0.00529 | 0.121 | 0.101 | 0.0895
